Measured values reported in patent US20250360235A1, “RADI[…] AND METHOD FOR RADIOLABELLING” (Telix Innovations SA, priority 2024, published 2025).

Test: Radiochemical purity by iTLC over time after radiolabelling
Assay type: physicochemical
Description: Table 1 to Table 5 show the results of various radiolabelling experiments on radiochemical purity and the chelation yield. The radiolabelling experiments in the tables are carried out as described in: • Example 1 for when the gallium-68 source is GE Liquid target generator and EZAG GalliaPharm generator; • Example 2 for when the gallium-68 source is IRE Galli Eo generator; • Example 3 for when the gallium-68 source is GE solid target generator;
However, the experiments were carried out with the amount of ascorbic acid as indicated in the Tables 1 to 5, and the activity as indicated in the Tables 1 to 5. Radiochemical purities were measured at various times (T0, T1, T4, T6) after the radiolabelled experiments have been conducted.
The kits of Example 1, Example 2 or Example 3, with amounts of ascorbic acid as set out in Table 7 were used in the experiments for the ascorbic acid bracketing matrix. Three strengths of [^68Ga]Ga-PSMA-11 will be tested, i.e. 50 mCi/ml, 7 mCi/ml and 1 mCi/ml. Radiochemical purity was determined at different time points (TO, T1, T4 or T6), as set out in Table 7.

[1] = 25 mg ascorbic acid, 46.0-46.1 mCi, 4.38-4.39 mCi/mL, EZAG GalliaPharm, average of 2, T4 (4 h)
[2] = 25 mg ascorbic acid, 46.0-46.1 mCi, 4.38-4.39 mCi/mL, EZAG GalliaPharm, n=2, T0
[3] = 25 mg ascorbic acid, 46.0-46.1 mCi, 4.38-4.39 mCi/mL, EZAG GalliaPharm, n=2, T4 (4 h)
[4] = bracketing ~1 mCi/mL, 18.75 mg ascorbic acid, 8.9-11.5 mCi, 0.85-1.09 mCi/mL, IRE Galli Eo, average of 2, T0
[5] = bracketing ~1 mCi/mL, 18.75 mg ascorbic acid, 8.9-11.5 mCi, 0.85-1.09 mCi/mL, IRE Galli Eo, average of 2, T1 (1 h)
[6] = bracketing ~1 mCi/mL, 25 mg ascorbic acid, 8.8-12.7 mCi, 0.84-1.21 mCi/mL, 2 × IRE Galli Eo, average of 2, T0
[7] = bracketing ~1 mCi/mL, 25 mg ascorbic acid, 8.8-12.7 mCi, 0.84-1.21 mCi/mL, 2 × IRE Galli Eo, average of 2, T1 (1 h)
[8] = bracketing ~1 mCi/mL, 31.25 mg ascorbic acid, 15.2-26.9 mCi, 1.44-2.54 mCi/mL, EZAG GalliaPharm, average of 2, T0
[9] = bracketing ~1 mCi/mL, 31.25 mg ascorbic acid, 15.2-26.9 mCi, 1.44-2.54 mCi/mL, EZAG GalliaPharm, average of 2, T1 (1 h)
[10] = bracketing ~7 mCi/mL, 18.75 mg ascorbic acid, 51.0-58.0 mCi, 5.55-6.5 mCi/mL, IRE Galli Eo, average of 2, T0
[11] = bracketing ~7 mCi/mL, 18.75 mg ascorbic acid, 51.0-58.0 mCi, 5.55-6.5 mCi/mL, IRE Galli Eo, average of 2, T4 (4 h)
[12] = bracketing ~7 mCi/mL, 25 mg ascorbic acid, 51.6-74.4 mCi, 4.56-6.92 mCi/mL, 3 × GE Liquid Target, 3 × IRE Galli Eo, 3 × EZAG GalliaPharm, average of 9, T0
[13] = bracketing ~7 mCi/mL, 25 mg ascorbic acid, 51.6-74.4 mCi, 4.56-6.92 mCi/mL, 3 × GE Liquid Target, 3 × IRE Galli Eo, 3 × EZAG GalliaPharm, average of 9, T4 (4 h)
[14] = bracketing ~7 mCi/mL, 31.25 mg ascorbic acid, 61.5-62.0 mCi, 5.85-5.88 mCi/mL, EZAG GalliaPharm, average of 2, T0
[15] = bracketing ~7 mCi/mL, 31.25 mg ascorbic acid, 61.5-62.0 mCi, 5.85-5.88 mCi/mL, EZAG GalliaPharm, average of 2, T4 (4 h)
[16] = bracketing ~50 mCi/mL, 20 mg ascorbic acid, 514-544 mCi, 48.3-51.9 mCi/mL, GE Solid Target, average of 2, T0
[17] = bracketing ~50 mCi/mL, 20 mg ascorbic acid, 514-544 mCi, 48.3-51.9 mCi/mL, GE Solid Target, average of 2, T6 (6 h)
[18] = bracketing ~50 mCi/mL, 25 mg ascorbic acid, 537-551 mCi, 50.2-51.6 mCi/mL, GE Solid Target, average of 3, T0
[19] = bracketing ~50 mCi/mL, 25 mg ascorbic acid, 537-551 mCi, 50.2-51.6 mCi/mL, GE Solid Target, average of 3, T6 (6 h)
[20] = bracketing ~50 mCi/mL, 31.25 mg ascorbic acid, 500-544 mCi, 48.1-51.7 mCi/mL, GE Solid Target, average of 2, T0

## O=C([O-])CN(CCN(CC(=O)[O-])Cc1cc(CCC(=O)NCCCCCC(=O)NCCCC[C@H](NC(=O)N[C@@H](CCC(=O)O)C(=O)O)C(=O)O)ccc1[O-])Cc1cc(CCC(=O)O)ccc1[O-].[68Ga+3].[OH3+] [[^68Ga]PSMA-11, gallium-68 radiolabelled Glu-urea-Lys-HBED-CC (gozetotide or PSMA-11)]
[1]
  Radiochemical Purity (iTLC) Free and Colloidal Ga-68 (%): 0%
  Radiochemical Purity (iTLC) Ga-68 PSMA-11 (%): 100%
[2]
  Radiochemical Purity (iTLC) Free and Colloidal Ga-68 (%): C (C = all results conform to specifications)
  Radiochemical Purity (iTLC) Ga-68 PSMA-11 (%): C (C = all results conform to specifications)
[3]
  Radiochemical Purity (iTLC) Free and Colloidal Ga-68 (%): C (C = all results conform to specifications)
  Radiochemical Purity (iTLC) Ga-68 PSMA-11 (%): C (C = all results conform to specifications)
[4]
  Radiochemical Purity (iTLC) Free and Colloidal Ga-68 (%): 0%
  Radiochemical Purity (iTLC) Ga-68 PSMA-11 (%): 100%
[5]
  Radiochemical Purity (iTLC) Free and Colloidal Ga-68 (%): 0%
  Radiochemical Purity (iTLC) Ga-68 PSMA-11 (%): 100%
[6]
  Radiochemical Purity (iTLC) Free and Colloidal Ga-68 (%): 0%
  Radiochemical Purity (iTLC) Ga-68 PSMA-11 (%): 100%
[7]
  Radiochemical Purity (iTLC) Free and Colloidal Ga-68 (%): 0%
  Radiochemical Purity (iTLC) Ga-68 PSMA-11 (%): 100%
[8]
  Radiochemical Purity (iTLC) Free and Colloidal Ga-68 (%): 0%
  Radiochemical Purity (iTLC) Ga-68 PSMA-11 (%): 100%
[9]
  Radiochemical Purity (iTLC) Free and Colloidal Ga-68 (%): 0%
  Radiochemical Purity (iTLC) Ga-68 PSMA-11 (%): 100%
[10]
  Radiochemical Purity (iTLC) Free and Colloidal Ga-68 (%): 0%
  Radiochemical Purity (iTLC) Ga-68 PSMA-11 (%): 100%
[11]
  Radiochemical Purity (iTLC) Free and Colloidal Ga-68 (%): 0%
  Radiochemical Purity (iTLC) Ga-68 PSMA-11 (%): 100%
[12]
  Radiochemical Purity (iTLC) Free and Colloidal Ga-68 (%): 0%
  Radiochemical Purity (iTLC) Ga-68 PSMA-11 (%): 100%
[13]
  Radiochemical Purity (iTLC) Free and Colloidal Ga-68 (%): 1%
  Radiochemical Purity (iTLC) Ga-68 PSMA-11 (%): 99%
[14]
  Radiochemical Purity (iTLC) Free and Colloidal Ga-68 (%): 0%
  Radiochemical Purity (iTLC) Ga-68 PSMA-11 (%): 100%
[15]
  Radiochemical Purity (iTLC) Free and Colloidal Ga-68 (%): 0%
  Radiochemical Purity (iTLC) Ga-68 PSMA-11 (%): 100%
[16]
  Radiochemical Purity (iTLC) Free and Colloidal Ga-68 (%): 3%
  Radiochemical Purity (iTLC) Ga-68 PSMA-11 (%): 97%
[17]
  Radiochemical Purity (iTLC) Free and Colloidal Ga-68 (%): 2%
  Radiochemical Purity (iTLC) Ga-68 PSMA-11 (%): 98%
[18]
  Radiochemical Purity (iTLC) Free and Colloidal Ga-68 (%): 0%
  Radiochemical Purity (iTLC) Ga-68 PSMA-11 (%): 100%
[19]
  Radiochemical Purity (iTLC) Free and Colloidal Ga-68 (%): 1%
  Radiochemical Purity (iTLC) Ga-68 PSMA-11 (%): 99%
[20]
  Radiochemical Purity (iTLC) Free and Colloidal Ga-68 (%): 1%
  Radiochemical Purity (iTLC) Ga-68 PSMA-11 (%): 99%
Bracketing ~50 mCi/mL, 31.25 mg ascorbic acid, 500-544 mCi, 48.1-51.7 mCi/mL, GE Solid Target, average of 2, T6 (6 h)
  Radiochemical Purity (iTLC) Free and Colloidal Ga-68 (%): 1%
